# Data reported in paper PMC10281575, “PfCRT mutations conferring piperaquine resistance in falciparum malaria shape the kinetics of quinoline drug binding and transport” (PLOS Pathogens, 2023).
# Values joined by “and” are separate entries in the source; they are usually repeats but may differ in a detail not shown here. Equal entries are not always repeated.
# What was measured:
# PfCRT^Dd2 [1] = target: T1, PfCRT^Dd2 (Plasmodium falciparum, UniProt Q8IBZ9, A220S/I356T/K76T/M74I/N326S/N75E/Q271E/R371I); assay: Competition plot (Vtotal versus proportion of PPQ in CQ/PPQ mixtures), PfCRT^Dd2; format: cell-based; set-up: expressed in transfected cells; host or cells: Xenopus laevis oocytes injected with in vitro transcribed RNA (pSP64T)
# T1 sequence (Q8IBZ9 1-424 M74I/N75E/K76T/A220S/Q271E/N326S/I356T/R371I): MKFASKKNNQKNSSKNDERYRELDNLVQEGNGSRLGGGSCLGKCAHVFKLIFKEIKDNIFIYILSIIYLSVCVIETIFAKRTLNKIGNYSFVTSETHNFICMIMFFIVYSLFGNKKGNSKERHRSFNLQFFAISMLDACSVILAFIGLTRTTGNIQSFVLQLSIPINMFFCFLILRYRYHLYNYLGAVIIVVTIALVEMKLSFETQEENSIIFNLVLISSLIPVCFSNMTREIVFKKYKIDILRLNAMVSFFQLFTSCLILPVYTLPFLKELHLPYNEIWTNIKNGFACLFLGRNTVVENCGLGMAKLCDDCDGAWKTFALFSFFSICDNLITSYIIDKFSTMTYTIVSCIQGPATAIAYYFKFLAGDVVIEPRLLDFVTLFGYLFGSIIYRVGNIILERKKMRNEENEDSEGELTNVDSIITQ
# Procedure: To test this hypothesis, we performed competition plot experiments, in which the enzyme or carrier is exposed to substrate mixtures that give the same transport rate for different substrates. The experiment is performed with substrate A labeled and then repeated with substrate B labeled.
# The competition plot tests whether two substrates bind to the same site or distinct sites on an enzyme or transporter. A competitive reaction would yield data points that lie on a horizontal line, whereas allosteric interactions would reveal a curved relationship. […] Vtotal was subsequently analyzed as a function of the proportion of PPQ in the mixture (P). For more details see Materials and Methods. The mean ± SEM of at least 3 independent biological replicates are shown.
# The competition plot was performed as described elsewhere. […] These corresponded to values of P equal to 0, 0.25, 0.5, 0.75, 0.9 and 1. A plot of Vtotal as a function of P yielded the competition plots. If both substrates bind to the same site, then a constant Vtotal is expected across all P values (e.g. data lies on a horizontal line). If the substrates bind to different sites, and they inhibit each other’s transport, it is expected that the curve is concave with either a minimum or a maximum.
# PfCRT^Dd2 [2] = target: T1, PfCRT^Dd2; assay: Radiolabeled drug uptake (transport assay) in Xenopus laevis oocytes expressing PfCRT^Dd2; format: cell-based; set-up: expressed in transfected cells; host or cells: Xenopus laevis oocytes injected with in vitro transcribed RNA (pSP64T)
# Procedure: The two kinetic parameters were derived by fitting the Michaelis-Menten equation to the kinetic data (Table 1).
# Adult female X. laevis frogs (purchased from NASCO) were anesthetized by submersion in a solution of 0.3% (w/v) 3-amino benzoate methanesulfonate for 15 min. Sections of the ovary were surgically removed and placed in Ca^2+-free ND96 buffer supplemented with 0.1% collagenase D (w/v; Roche), 0.5% BSA (w/v) and 9 mM Na2HPO4 at 18°C for 14–16 h while gently shaking. The oocytes were then washed several times with ND96 buffer (5 mM HEPES, pH 7.5, 96 mM NaCl, 2 mM KCl, 1.8 mM CaCl2, 1 mM MgCl2), supplemented with […] gentamycin. Healthy-looking stage V-VI oocytes were manually selected and randomly grouped for injection. A codon-optimized coding sequence of PfCRT was subcloned into the pSP64T expression vector and subsequently linearized using the restriction endonuclease BamHI or SalI (New England Biolabs GmbH). RNA for injection was transcribed in vitro using the mMESSAGE mMACHINE SP6 Transcription kit (Ambion), diluted with nuclease-free water to a final concentration of 0.6 μg/μL and stored at -80°C. RNA was injected using precision-bore glass capillary tubes (3.5-inch glass capillaries; Drummond Scientific Co.), which were pulled on a vertical puller (P-87 Flaming/Brown micropipette puller, Sutter Instrument Co.) and graduated. The micropipettes were connected to a microinjector (Nanoject II Auto-Nanoliter Injector, Drummond Scientific Co.). Injection was conducted under stereomicroscopic control. 50 nL of nuclease-free water alone (control oocytes) or 50 nL of nuclease-free water containing 30 ng of RNA was injected per oocyte. Injected oocytes were kept for 72 h at 18°C in ND96 buffer with two daily buffer changes before being used for further experiments.
# Drug transport assays were performed as previously described. Briefly, measurements of radiolabeled drug uptake were made over 1 h, unless otherwise specified. […] Where specified, one or more unlabeled drugs were also present at the indicated concentrations. […] The uptake assays were terminated by removing the oocytes from the reaction medium and washing them three times with 2 mL of ice-cold ND96 buffer. Each oocyte was transferred to a separate scintillation vial and lysed by the addition of 200 μL of a 5% SDS solution. The radioactivity in the sample was measured using a liquid scintillation analyser Tri-Carb 4910 TR (PerkinElmer). Water-injected oocytes were analyzed in parallel as a negative control. The buffer from each condition was measured in duplicate in parallel to each experiment to transform counts per minute into pmol of drug. Drug uptake attributable to PfCRT was determined by subtracting the background uptake from water-injected oocytes from that of PfCRT-expressing oocytes. In all cases, at least three independent experiments were performed on oocytes from different frogs, and for each condition in an experiment, measurements were made from 10 oocytes per treatment.
# [3] = 50 μM PPQ, pH 6.0, total uptake, one value per biological replicate
# [4] = 50 μM PPQ, pH 6.0, water-injected uptake subtracted, per replicate
# [5] = 60 min, pH 6, per biological replicate
structure (smiles),measurement,setting,value
"Clc1ccc2c(N3CCN(CCCN4CCN(c5ccnc6cc(Cl)ccc56)CC4)CC3)ccnc2c1 [PPQ, piperaquine]",PfCRTDd2-mediated PPQ transport P = 0.25,"PfCRT^Dd2 [1]; CQ/PPQ mixture, P = 0.25, single replicates",3.23 pmol oocyte-1 h-1 and 2.01 pmol oocyte-1 h-1 and 4.17 pmol oocyte-1 h-1
same,PfCRTDd2-mediated PPQ transport P = 0.5,"PfCRT^Dd2 [1]; CQ/PPQ mixture, P = 0.5, single replicates",8.67 pmol oocyte-1 h-1 and 8.62 pmol oocyte-1 h-1 and 9.88 pmol oocyte-1 h-1
same,PfCRTDd2-mediated PPQ transport P = 0.75,"PfCRT^Dd2 [1]; CQ/PPQ mixture, P = 0.75, single replicates",14.14 pmol oocyte-1 h-1 and 12.26 pmol oocyte-1 h-1 and 14.54 pmol oocyte-1 h-1
same,PfCRTDd2-mediated PPQ transport P = 0.9,"PfCRT^Dd2 [1]; CQ/PPQ mixture, P = 0.9, single replicates",15.27 pmol oocyte-1 h-1 and 15.64 pmol oocyte-1 h-1 and 17.36 pmol oocyte-1 h-1 and 20.19 pmol oocyte-1 h-1
same,PfCRTDd2-mediated PPQ transport P = 1,"PfCRT^Dd2 [1]; CQ/PPQ mixture, P = 1, single replicates",17.53 pmol oocyte-1 h-1 and 18.98 pmol oocyte-1 h-1 and 22.10 pmol oocyte-1 h-1
same,competition plot result (binding sites),"PfCRT^Dd2 [1]; CQ/PPQ mixtures, curve with a maximum",bind at different sites
same,PfCRTDd2-mediated PPQ uptake at 10 µM PPQ,"PfCRT^Dd2 [2]; 10 µM PPQ, single replicates",7.56 pmol oocyte-1 h-1 and 10.37 pmol oocyte-1 h-1 and 9.52 pmol oocyte-1 h-1
same,PfCRTDd2 PPQ uptake at 10 min,PfCRT^Dd2 [2]; [3],37.95 pmol oocyte-1 and 17.31 pmol oocyte-1 and 66.26 pmol oocyte-1 and 58.58 pmol oocyte-1 and 53.50 pmol oocyte-1 and 34.40 pmol oocyte-1
same,PfCRTDd2 PPQ uptake at 30 min,PfCRT^Dd2 [2]; [3],69.53 pmol oocyte-1 and 108.95 pmol oocyte-1 and 50.26 pmol oocyte-1
same,PfCRTDd2 PPQ uptake at 60 min,PfCRT^Dd2 [2]; [3],123.14 pmol oocyte-1 and 94.65 pmol oocyte-1 and 103.77 pmol oocyte-1 and 219.78 pmol oocyte-1 and 140.45 pmol oocyte-1 and 145.26 pmol oocyte-1
same,PfCRTDd2 PPQ uptake at 90 min,PfCRT^Dd2 [2]; [3],183.05 pmol oocyte-1 and 183.06 pmol oocyte-1 and 147.41 pmol oocyte-1
same,PfCRTDd2 PPQ uptake at 120 min,PfCRT^Dd2 [2]; [3],118.72 pmol oocyte-1 and 197.79 pmol oocyte-1 and 316.81 pmol oocyte-1 and 143.54 pmol oocyte-1 and 477.33 pmol oocyte-1
same,PfCRTDd2 PPQ uptake at 180 min,PfCRT^Dd2 [2]; [3],167.85 pmol oocyte-1 and 274.70 pmol oocyte-1 and 265.00 pmol oocyte-1
same,PfCRTDd2-mediated PPQ uptake at 10 min,PfCRT^Dd2 [2]; [4],17.92 pmol oocyte-1 and 6.16 pmol oocyte-1 and 19.07 pmol oocyte-1 and 16.58 pmol oocyte-1 and 10.50 pmol oocyte-1 and 10.36 pmol oocyte-1
same,PfCRTDd2-mediated PPQ uptake at 30 min,PfCRT^Dd2 [2]; [4],29.61 pmol oocyte-1 and 27.31 pmol oocyte-1 and 14.01 pmol oocyte-1
same,PfCRTDd2-mediated PPQ uptake at 60 min,PfCRT^Dd2 [2]; [4],28.14 pmol oocyte-1 and 21.87 pmol oocyte-1 and 89.78 pmol oocyte-1 and 46.28 pmol oocyte-1 and 30.01 pmol oocyte-1 and 33.33 pmol oocyte-1
same,PfCRTDd2-mediated PPQ uptake at 90 min,PfCRT^Dd2 [2]; [4],41.43 pmol oocyte-1 and 74.11 pmol oocyte-1 and 31.93 pmol oocyte-1
same,PfCRTDd2-mediated PPQ uptake at 120 min,PfCRT^Dd2 [2]; [4],30.25 pmol oocyte-1 and 19.89 pmol oocyte-1 and 85.94 pmol oocyte-1 and 81.35 pmol oocyte-1 and 70.65 pmol oocyte-1
same,PfCRTDd2-mediated PPQ uptake at 180 min,PfCRT^Dd2 [2]; [4],32.52 pmol oocyte-1 and 76.65 pmol oocyte-1 and 72.50 pmol oocyte-1
same,PfCRTDd2-mediated PPQ uptake at 50 µM PPQ,"PfCRT^Dd2 [2]; 50 µM PPQ, single replicates",28.14 pmol oocyte-1 h-1 and 21.87 pmol oocyte-1 h-1 and 89.78 pmol oocyte-1 h-1 and 46.28 pmol oocyte-1 h-1 and 30.01 pmol oocyte-1 h-1 and 33.33 pmol oocyte-1 h-1 and 10.90 pmol oocyte-1 h-1
same,PfCRTDd2-mediated PPQ uptake at 100 µM PPQ,"PfCRT^Dd2 [2]; 100 µM PPQ, single replicates",59.97 pmol oocyte-1 h-1 and 45.22 pmol oocyte-1 h-1 and 64.52 pmol oocyte-1 h-1
same,PfCRTDd2-mediated PPQ uptake at 200 µM PPQ,"PfCRT^Dd2 [2]; 200 µM PPQ, single replicates",87.13 pmol oocyte-1 h-1 and 109.05 pmol oocyte-1 h-1 and 57.84 pmol oocyte-1 h-1
same,PfCRTDd2-mediated PPQ uptake at 300 µM PPQ,"PfCRT^Dd2 [2]; 300 µM PPQ, single replicates",90.42 pmol oocyte-1 h-1 and 110.91 pmol oocyte-1 h-1 and 77.44 pmol oocyte-1 h-1
same,PfCRTDd2-mediated PPQ uptake at 400 µM PPQ,"PfCRT^Dd2 [2]; 400 µM PPQ, single replicates",113.37 pmol oocyte-1 h-1 and 109.88 pmol oocyte-1 h-1 and 74.49 pmol oocyte-1 h-1
same,PfCRTDd2-mediated PPQ uptake at 500 µM PPQ,"PfCRT^Dd2 [2]; 500 µM PPQ, single replicates",118.94 pmol oocyte-1 h-1 and 82.44 pmol oocyte-1 h-1 and 112.35 pmol oocyte-1 h-1
same,PfCRTDd2-mediated PPQ uptake at 10 µM PPQ,PfCRT^Dd2 [2]; [5],7.56 pmol oocyte-1 h-1 and 10.37 pmol oocyte-1 h-1 and 9.52 pmol oocyte-1 h-1
same,PfCRTDd2-mediated PPQ uptake at 50 µM PPQ,PfCRT^Dd2 [2]; [5],33.33 pmol oocyte-1 h-1 and 10.9 pmol oocyte-1 h-1 and 28.14 pmol oocyte-1 h-1 and 21.87 pmol oocyte-1 h-1 and 89.78 pmol oocyte-1 h-1 and 46.28 pmol oocyte-1 h-1 and 30.01 pmol oocyte-1 h-1
same,PfCRTDd2-mediated PPQ uptake at 100 µM PPQ,PfCRT^Dd2 [2]; [5],59.97 pmol oocyte-1 h-1 and 45.22 pmol oocyte-1 h-1 and 64.52 pmol oocyte-1 h-1
same,PfCRTDd2-mediated PPQ uptake at 200 µM PPQ,PfCRT^Dd2 [2]; [5],87.13 pmol oocyte-1 h-1 and 109.05 pmol oocyte-1 h-1 and 57.84 pmol oocyte-1 h-1
same,PfCRTDd2-mediated PPQ uptake at 300 µM PPQ,PfCRT^Dd2 [2]; [5],90.42 pmol oocyte-1 h-1 and 110.91 pmol oocyte-1 h-1 and 77.44 pmol oocyte-1 h-1
same,PfCRTDd2-mediated PPQ uptake at 400 µM PPQ,PfCRT^Dd2 [2]; [5],113.37 pmol oocyte-1 h-1 and 109.88 pmol oocyte-1 h-1 and 74.49 pmol oocyte-1 h-1
same,PfCRTDd2-mediated PPQ uptake at 500 µM PPQ,PfCRT^Dd2 [2]; [5],118.94 pmol oocyte-1 h-1 and 82.44 pmol oocyte-1 h-1 and 112.35 pmol oocyte-1 h-1
same,"Vmax, maximal velocity of drug transport","PfCRT^Dd2 [2]; Michaelis-Menten fit, 10-500 μM drug, 60 min, pH 6",131 ± 3 pmol oocyte^-1 h^-1 and 259.88 pmol oocyte^-1 h^-1
same,Km,"PfCRT^Dd2 [2]; Michaelis-Menten fit, 10-500 μM drug, 60 min, pH 6, read-out: KM, Michaelis constant",125 ± 9 µM
